Experiments:
[1] = tested on: Gi coupling of GnRHR (FSK-stimulated cAMP); experiment: Inhibition of FSK-stimulated cAMP in HEK293/rGnRHR cells; assay type: cell-based, rat; conditions: unpublished results
Text: However, we agree with the general view that PLC, representing the classical Gq-initiated pituitary signalling pathway, is not a relevant component of the apoptotic cascade.

HEK293/rGnRHR cells [2] = experiment: Thymidine incorporation assay; assay type: cell-based, rat; conditions: 100 nM, continuous treatment, over 96 h
Experimental: Medium of cells growing on 24-well PLL-coated plates was removed and 0.5 μCi [3H]thymidine (Amersham) in complete fresh medium was added to each well. After an overnight incubation, the medium was removed, the cells washed three times with 1 ml PBS and left for […] at room temperature in 0.5 ml 0.1 N NaOH. The extract was then transferred to a scintillation vial, 2 ml of Optiphase “HiSafe 3” cocktail (PerkinElmer) added and 3H counts measured in a liquid scintillation 1450 Wallac MicroBeta® TriLux counter.
(§1) We investigated whether the growth suppression caused by GnRH on HEK293 cells expressing the rat receptor was due to an inhibition of cell proliferation or an induction of apoptosis. On the one hand, we used radioactive thymidine incorporation into the genome to track cell proliferation over a period of 96 h. […] On the other hand, we measured apoptosis by monitoring cleavage of poly[ADP-ribose]polymerase (PARP), a substrate of caspase 3. […] The increase of cleaved PARP in the cytoplasm was proportional to the increase of cleaved PARP in the nucleus (data not shown), so we routinely only examined clarified whole-cell lysates for technical ease.

HEK293/rGnRHR cells [3] = experiment: Cell growth inhibition (viable cell number after 5 days of continuous treatment) in HEK293/rGnRHR cells; assay type: cell-based, rat; conditions: rat receptor
Experimental: (§2) For the first method, HEK293 cells expressing various GnRH receptor constructs were seeded into 12-well PLL-coated plates at 50,000 cells (in 1 ml)/well and cultured with continuous GnRH exposure for five days, adding fresh peptide every day. Trypan Blue-excluding cells were then counted with a haemocytometer. For the second method, cells were seeded into 96-well plates at 5,000 cells (in 100 μl)/well and treated exactly as described before. 10 μl WST-1 reagent (Roche Diagnostics Ltd.; Lewes, East Sussex, UK) was added directly to each well and, after 3 h at 37° C., absorbance was read at 450 nm (with a reference at 690 nm) against a background control as blank using a microplate ELISA reader.
(§3) Bar graphs and curves were obtained using Prism 3.0 (GraphPad Software, Inc.: San Diego, Calif., USA). IC50 and EC50 values were determined by non-linear regression analysis. Curves were best-fitted to a one-site model. […] Values were normalised as specified in the figure legends.
(§4) Antiproliferation/apoptosis was estimated by determining cell number after five days of continuous exposure to the peptides. In parallel, this response was compared to the classical Gq coupled-PLCβ activation induced by GnRH peptides, as measured by the very well characterized inositol phosphates accumulation protocol. Both outputs were determined in two HEK293 cell lines; one expressing the rat receptor and the other expressing the human receptor. The human cell line was included in the study because this species may be clinically more relevant and the very low receptor expression may better reflect the in vivo tumoural state. In fact, due to poor binding, the precise affinity of the analogues on this cell line could not be determined.

HEK293/hGnRHR cells = experiment: Cell growth inhibition (viable cell number after 5 days of continuous treatment) in HEK293/hGnRHR cells; assay type: cell-based, human; conditions: human receptor
Experimental: as §2, §3, §4

[4] = tested on: PARP cleavage in HEK293/rGnRHR cells; experiment: Time-course of PARP cleavage (apoptosis), western blot; assay type: cell-based, rat; conditions: 100 nM
Experimental: as §1

rat GnRH receptor = biological target: T1, rat GnRH receptor (Rattus norvegicus, UniProt P30969); experiment: Accumulation of total inositol phosphates (PLCβ activation) in HEK293/rGnRHR cells; assay type: cell-based
T1 construct: expressed in transfected cells
T1 sequence (P30969 1-327): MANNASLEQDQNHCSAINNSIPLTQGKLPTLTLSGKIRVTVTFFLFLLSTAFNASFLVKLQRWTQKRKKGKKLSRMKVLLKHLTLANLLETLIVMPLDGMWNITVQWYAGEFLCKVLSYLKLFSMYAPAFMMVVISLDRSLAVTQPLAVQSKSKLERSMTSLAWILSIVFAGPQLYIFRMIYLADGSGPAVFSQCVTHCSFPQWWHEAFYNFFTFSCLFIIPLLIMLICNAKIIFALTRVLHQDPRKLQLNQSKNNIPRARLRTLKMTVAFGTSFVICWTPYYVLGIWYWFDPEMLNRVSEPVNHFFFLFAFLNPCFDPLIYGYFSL
Experimental: HEK293 cells stably expressing the GnRH receptor growing on 12-well PLL-coated plates were pre-labelled with 1 μCi/ml myo-[H3]inositol (Amersham) in inositol-free DMEM (Sigma) for 48 h. On the day of the experiment, cells were washed with assay buffer (140 mM NaCl, 20 mM HEPES, 8 mM glucose, 4 mM KCl, 1 mM MgCl2, 1 mM CaCl2, 1 mg/ml BSA), pre-incubated with 10 mM LiCl (in assay buffer) for 30 min, and stimulated with different concentrations of the peptides (in the same buffer) for 1 h at 37° C. Incubations were terminated by removing the culture medium and lysing the cells in ice cold 10 mM formic acid for 30 min. Inositol phosphates were extracted by chromatography with an anion exchange resin (AG® 1-X8, Bio-Rad) using 1 M ammonium formate and 0.1 M formic acid. Liquid scintillant was added to the final eluate and [3H]inositol phosphates were measured in the β-counter.
as §3

[5] = tested on: HEK293 cells expressing human GnRHR with catfish GnRHR tail or rat GnRHR with TRHR tail; experiment: Cell growth after five days of GnRH I in HEK293 cells expressing tailed chimeric receptors; assay type: cell-based; conditions: five days of continuous treatment
Experimental: Trypan Blue-excluding cells were then counted with a haemocytometer. For the second method, cells were seeded into 96-well plates at 5,000 cells (in 100 μl)/well and treated exactly as described before. 10 μl WST-1 reagent (Roche Diagnostics Ltd.; Lewes, East Sussex, UK) was added directly to each well and, after 3 h at 37° C., absorbance was read at 450 nm (with a reference at 690 nm) against a background control as blank using a microplate ELISA reader. To the best of our knowledge, the ability to inhibit the growth of cells expressing its cognate receptor is a property only clearly described for GnRH, Since the type I GnRH receptor (GnRHR) is the only G protein-coupled receptor lacking an intracellular C-terminal tail, we hypothesized that the cell growth suppression ability of GnRH was conferred by this unique feature of the GnRHR. […] We were unable to detect growth suppression of wild-type HEK293 cells, which endogenously express adrenergic, LPA and endothelin receptors, treated with their corresponding agonists (data not shown). The expression of all receptors mentioned was confirmed by binding assays or western blotting (data not shown).

[6] = tested on: ERK1/2 phosphorylation in HEK293 cells expressing rat GnRHR or rat GnRHR/TRHR chimera; experiment: ERK activation profile, western blot with anti-phosphorylated ERK1/2; assay type: cell-based; conditions: 100 nM, rat GnRHR versus rat GnRHR/TRHR chimera
Text: We decided to investigate if this lack of rapid desensitisation holds true for other responses that may be more pertinent for the antiproliferative/apoptotic properties of GnRH.

[7] = tested on: HEK293 cells over-expressing the catfish GnRHR or the TRHR; experiment: Cell growth in HEK293 cells over-expressing the catfish GnRHR or the TRHR; assay type: cell-based; conditions: data not shown
Experimental: as §2
To the best of our knowledge, the ability to inhibit the growth of cells expressing its cognate receptor is a property only clearly described for GnRH, Since the type I GnRH receptor (GnRHR) is the only G protein-coupled receptor lacking an intracellular C-terminal tail, we hypothesized that the cell growth suppression ability of GnRH was conferred by this unique feature of the GnRHR. […] We were unable to detect growth suppression of wild-type HEK293 cells, which endogenously express adrenergic, LPA and endothelin receptors, treated with their corresponding agonists (data not shown). The expression of all receptors mentioned was confirmed by binding assays or western blotting (data not shown).

Row | Substance | inhibition of FSK-stimulated cAMP [1] | DNA replication (thymidine incorporation) compared to untreated cells (HEK293/rGnRHR cells [2]) | fold more potent than GnRH I to induce cell death / inhibit cell growth (HEK293/rGnRHR cells [3]) [fold] | fold more potent than GnRH I to induce cell death / inhibit cell growth (HEK293/hGnRHR cells) [fold] | time after first treatment at which PARP cleavage (apoptosis) is manifest [4] | fold more potent to activate PLCβ than GnRH II (rat GnRH receptor) [fold] | effect of GnRH I on cell growth of cell lines expressing the chimeras [5] | duration of ERK activation [6] | inhibition of cell growth [7]
1 | pGlu-His-Trp-Ser-His-Gly-Trp-Tyr-Pro-Gly.NH2 (EHWSHGWYPG; HELM PEPTIDE1{[Glp].H.W.S.H.G.W.Y.P.G.[am]}$$$$V2.0; SMILES NC(=O)CNC(=O)[C@@H]1CCCN1C(=O)[C@H](Cc1ccc(O)cc1)NC(=O)[C@H](Cc1c[nH]c2ccccc12)NC(=O)CNC(=O)[C@H](Cc1c[nH]cn1)NC(=O)[C@H](CO)NC(=O)[C@H](Cc1c[nH]c2ccccc12)NC(=O)[C@H](Cc1c[nH]cn1)NC(=O)[C@@H]1CCC(=O)N1) [GnRH II, human gonadotropin-releasing hormone II, purchased from Sigma-Aldrich] | did not detect | reduced DNA replication | 13.0 | 6.7 | 24 h | – | – | – | –
2 | pGlu-His-Trp-Ser-Tyr-Gly-Leu-Arg-Pro-Gly.NH2 [GnRH I] | did not detect | reduced DNA replication | – | – | at least 48 h | 4.7 | Addition of the C-terminal tails inhibited the effect | more sustained in the cells expressing the receptors lacking the C-terminal tail | did not inhibit the growth

— patent US9388216B2, “Methods of treating reproductive cancer” (Medical Research Council, priority 2006, dated 2016)
